pIC50: −log10 of the molar value. One block for each compound: values may come before it.
Test system: 997726-040-R-J2-PDC tumor spheroids, viability
Assay: Anticancer human tumor 997726-040-R-J2-PDC patient-derived squamous cell lung carcinoma cell line growth inhibition [PI3K]
Conditions: spheroids with HUVEC and MSC; for pIC50: curve of first compound; for viability, T/C: stronger effect = lower value
Outline: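 Tumor cells grown as multi-cell spheroids with HUVEC endothelial cells and MSC fibroblast-like stroma were treated with targeted agents combined with inavolisib, alpelisib, duvelisib or copanlisib. Doses fell in half-log steps from near clinical Cmax, else from 10 microM. Viability was measured.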

[1] = second compound 0.00316 µM, first compound 0.0316 µM
[2] = second compound 0.00316 µM, first compound 0.1 µM
[3] = second compound 0.00316 µM, first compound 0.316 µM
[4] = second compound 0.00316 µM, first compound 1 µM
[5] = second compound 0.00316 µM, first compound 3.16 µM
[6] = second compound 0.00316 µM, first compound 10 µM
[7] = second compound 0.01 µM, first compound 0.0316 µM
[8] = second compound 0.01 µM, first compound 0.1 µM
[9] = second compound 0.01 µM, first compound 0.316 µM
[10] = second compound 0.01 µM, first compound 1 µM
[11] = second compound 0.01 µM, first compound 3.16 µM
[12] = second compound 0.01 µM, first compound 10 µM
[13] = second compound 0.0316 µM, first compound 0.0316 µM
[14] = second compound 0.0316 µM, first compound 0.1 µM
[15] = second compound 0.0316 µM, first compound 0.316 µM
[16] = second compound 0.0316 µM, first compound 1 µM
[17] = second compound 0.0316 µM, first compound 3.16 µM
[18] = second compound 0.0316 µM, first compound 10 µM
[19] = second compound 0.1 µM, first compound 0.0316 µM
[20] = second compound 0.1 µM, first compound 0.1 µM
[21] = second compound 0.1 µM, first compound 0.316 µM
[22] = second compound 0.1 µM, first compound 1 µM
[23] = second compound 0.1 µM, first compound 3.16 µM
[24] = second compound 0.1 µM, first compound 10 µM
[25] = second compound 0.316 µM, first compound 0.0316 µM
[26] = second compound 0.316 µM, first compound 0.1 µM
[27] = second compound 0.316 µM, first compound 0.316 µM
[28] = second compound 0.316 µM, first compound 1 µM
[29] = second compound 0.316 µM, first compound 3.16 µM
[30] = second compound 0.316 µM, first compound 10 µM
[31] = second compound 1 µM, first compound 0.0316 µM
[32] = second compound 1 µM, first compound 0.1 µM
[33] = second compound 1 µM, first compound 0.316 µM
[34] = second compound 1 µM, first compound 1 µM
[35] = second compound 1 µM, first compound 3.16 µM
[36] = second compound 1 µM, first compound 10 µM
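Also: spheroids exposed to compounds for seven days before readout.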

pIC50 (second compound 0.00316 µM): < 5.00
pIC50 (second compound 0.01 µM): 5.29
pIC50 (second compound 0.0316 µM): > 7.50
pIC50 (second compound 0.1 µM): > 7.50
pIC50 (second compound 0.316 µM): > 7.50
pIC50 (second compound 1 µM): > 7.50
SMILES: C#Cc1c(F)ccc2cc(O)cc(-c3ncc4c(N5CC6CCC(C5)N6)nc(OCC56CCCN5CC(F)C6)nc4c3F)c12 (centres undefined) + COc1c(OCCCN2CCOCC2)ccc2c3n(c(=NC(=O)c4cnc(N)nc4)nc12)CCN3
viability, T/C [1]: 73.6%
viability, T/C [2]: 74.5%
viability, T/C [3]: 69.3%
viability, T/C [4]: 76%
viability, T/C [5]: 72%
viability, T/C [6]: 58.5%
viability, T/C [7]: 63.7%
viability, T/C [8]: 57.6%
viability, T/C [9]: 55.5%
viability, T/C [10]: 57.2%
viability, T/C [11]: 51.3%
viability, T/C [12]: 47.1%
viability, T/C [13]: 36.1%
viability, T/C [14]: 35%
viability, T/C [15]: 30%
viability, T/C [16]: 32.6%
viability, T/C [17]: 28.7%
viability, T/C [18]: 27.7%
viability, T/C [19]: 23%
viability, T/C [20]: 21.7%
viability, T/C [21]: 20.9%
viability, T/C [22]: 22.2%
viability, T/C [23]: 20.1%
viability, T/C [24]: 17.6%
viability, T/C [25]: 4.68%
viability, T/C [26]: 5.65%
viability, T/C [27]: 4.53%
viability, T/C [28]: 4.98%
viability, T/C [29]: 4.96%
viability, T/C [30]: 3.97%
viability, T/C [31]: 1.7%
viability, T/C [32]: 1.08%
viability, T/C [33]: 1.16%
viability, T/C [34]: 0.96%
viability, T/C [35]: 0.92%
viability, T/C [36]: 0.86%

pIC50 (second compound 0.00316 µM): < 5.00
pIC50 (second compound 0.01 µM): < 5.00
pIC50 (second compound 0.0316 µM): > 7.50
pIC50 (second compound 0.1 µM): > 7.50
pIC50 (second compound 0.316 µM): > 7.50
pIC50 (second compound 1 µM): > 7.50
SMILES: C=CC(=O)N1CCN(c2nc(=O)n(-c3c(C)ccnc3C(C)C)c3nc(-c4c(O)cccc4F)c(F)cc23)C(C)C1 (centres undefined) + COc1c(OCCCN2CCOCC2)ccc2c3n(c(=NC(=O)c4cnc(N)nc4)nc12)CCN3
viability, T/C [1]: 71.2%
viability, T/C [2]: 72.5%
viability, T/C [3]: 85.4%
viability, T/C [4]: 77.6%
viability, T/C [5]: 92.2%
viability, T/C [6]: 96.4%
viability, T/C [7]: 53%
viability, T/C [8]: 57.5%
viability, T/C [9]: 51.2%
viability, T/C [10]: 62.9%
viability, T/C [11]: 63.1%
viability, T/C [12]: 57.1%
viability, T/C [13]: 33.9%
viability, T/C [14]: 36%
viability, T/C [15]: 34.4%
viability, T/C [16]: 40.5%
viability, T/C [17]: 43.2%
viability, T/C [18]: 34.8%
viability, T/C [19]: 28%
viability, T/C [20]: 24.4%
viability, T/C [21]: 25.1%
viability, T/C [22]: 23.3%
viability, T/C [23]: 22.9%
viability, T/C [24]: 21.8%
viability, T/C [25]: 6.57%
viability, T/C [26]: 6.07%
viability, T/C [27]: 5.29%
viability, T/C [28]: 5.93%
viability, T/C [29]: 4.93%
viability, T/C [30]: 4.59%
viability, T/C [31]: 2.71%
viability, T/C [32]: 1.42%
viability, T/C [33]: 1.53%
viability, T/C [34]: 1.33%
viability, T/C [35]: 1.27%
viability, T/C [36]: 1.57%

— PubChem BioAssay AID1963964 (Molecular Pharmacology Branch, DTP, NCI, 2024)
